Source: PubChem BioAssay AID1985 (Southern Research Specialized Biocontainment Screening …, 2009)
“And” between values parts separate entries of the source, which are not always exact repeats. Equal values may be shown once.

Test system: S. Typhi PhoP-promoter GFP reporter, fluorescence, 4 h
Test: PhoP regulon inhibitor project modified counter assay, GFP fluorescence readout, dose response (AID 1985)

| SMILES | IC50 |
| --- | --- |
| CCn1cc(C(=O)O)c(=O)c2cc(F)c(N3CCN(C(=S)NC(=O)c4cccc(C)c4)CC3)cc21 | 8.37 µM |
| CC1(CC(=O)N/N=C/c2cc([N+](=O)[O-])c(O)cc2O)OCCO1 | 38.4 µM |
| C#CCOCCOCCOCCNc1nc(N2CCN(C(=O)[C@H]([C@@H](C)CC)n3cc([C@@H](N)Cc4ccc(O)cc4)nn3)CC2)nc(N2CCN(C(=O)[C@H](Cc3cc4ccccc4[nH]3)n3cc([C@@H](N)CC(C)C)nn3)CC2)n1 | 150 µM |
| Cc1ccc(NC(=O)C(=O)NNC(=O)c2cccs2)cc1 | 13.2 µM |
| CCCCCCCCCCCCCCCCn1cc[n+](C)c1 | 19.1 µM |
| Cc1[nH]n(-c2ccccc2)c(=O)c1C(c1cccc([N+](=O)[O-])c1O)c1c(C)[nH]n(-c2ccccc2)c1=O | 48.5 µM |
| O=S1(=O)Nc2c(ccc3cccnc23)-c2ccccc21 | 1.17 µM |
| C=C1c2cccc(O)c2C(O)=C2C(=O)[C@]3(O)C(O)=C(C(N)=O)C(=O)[C@@H](N(C)C)[C@@H]3[C@@H](O)[C@H]12 | 0.376 µM |
| CO[C@@]1(NC(=O)Cc2cccs2)C(=O)N2C(C(=O)O)=C(COC(N)=O)CS[C@@H]21 | 40.5 µM |
| CC1(C)N=C(N)N=C(N)N1c1ccc(Oc2ccc(Cl)cc2)c(Cl)c1 | 43 µM |
| O=C(CCN1CCN(c2ccccc2)CC1)c1ccc(Br)cc1 | 98.6 µM |
| CCOC(=O)N/N=C(/C)c1ccc([N+](=O)[O-])o1 | 45.8 µM |
| O=S(=O)(Nc1ncccn1)c1ccc(NC(=S)Nc2ccc(Cl)cc2)cc1 | 97.1 µM |
| O=[N+]([O-])c1cccc2c(N3CCCC3)ccnc12 | 17.6 µM |
| O=C(C[n+]1cc(-c2ccc(Cl)c(Cl)c2)n2c1CCC2)N1c2ccccc2Sc2ccccc21 | 78.2 µM |
| O=C(Nc1ccc2nc(-c3ccc(Br)o3)[nH]c2c1)c1ccco1 | 130 µM |
| CCn1cc(C(=O)NCC(C)C)c(=O)c2cc(F)c(N3CCN(C)CC3)cc21 | 30.6 µM |
| CCOC(=O)c1c(-c2ccc(-c3ccccc3)cc2)csc1NC(=O)CNCCN(C)C | 82.2 µM |
| O=C(CNC(=O)c1cccc(F)c1)N/N=C/c1ccc([N+](=O)[O-])s1 | 23.8 µM |
| C=CCNc1ncnc2c1[nH]c1ccc(C)cc12 | 56.3 µM |
| S=C(Nc1ccc(Cl)c(Cl)c1)NC1CCN(Cc2ccccc2)CC1 | 38 µM |
| O=C(CN1CC[n+]2c(-c3cccs3)csc21)c1ccc(-c2ccccc2)cc1 | 33.7 µM |
| Cc1cccc(Nc2cc(C)c3c(O)cccc3n2)c1C | 49.6 µM |
| O=C(N/N=C/c1cc(Br)cc(Br)c1O)c1ccncc1 | 34.5 µM |
| CCCCNC1=CC(=O)C(=O)c2ccccc21 | 104 µM |
| S=C(Nc1cc(Cl)cc(Cl)c1)NC1CCN(Cc2ccccc2)CC1 | 36.7 µM |
| COc1cccc(NC2=NC3(CCCCC3)N=C(N)N2)c1 | 147 µM |

| SMILES | IC50 |
| --- | --- |
| CC(C)CCC(CCNCc1ccccn1)c1ccc(Cl)cc1 (centres undefined) | 79.4 µM |
| C=C1c2c(Cl)ccc(O)c2C(O)=C2C(=O)[C@]3(O)C(O)=C(C(N)=O)C(=O)[C@@H](N(C)C)[C@@H]3[C@@H](O)C12 (some centres undefined) | 0.924 µM |
| Fc1cccc(Nc2c3c(nc4ccccc24)CCC3)c1 | 126 µM |
| N=c1n(CC(=O)c2ccc(Br)s2)c2ccccc2n1Cc1ccccc1 | 47.2 µM |
| NC(N)=N/N=C/c1ccc(OCc2ccccc2Cl)cc1 | 33.4 µM |
| CN1CCN(CCCN2c3ccccc3Sc3ccc(Cl)cc32)CC1 | 132 µM and 79.2 µM |
| COc1ccc(C(=O)NC(=S)NNC(=O)c2cccc(C)c2)cc1 | 46.8 µM |
| CCCCCNC(=O)c1cn(CC)c2cc(N3CCN(C)CC3)c(F)cc2c1=O | 80.1 µM |
| O=C(c1ccccc1)c1c2c(cc3sc4ccccc4[n+]13)-c1cccc3cccc-2c13 | 77.3 µM |
| COc1cc(/C=C2/C(=O)NN(c3ccc(C)c(Cl)c3)C2=O)cc([N+](=O)[O-])c1O | 46.6 µM |
| O=C(NCCCN1CCN(c2ccc(F)cc2)CC1)Nc1ccc([N+](=O)[O-])cc1 | 117 µM |
| CN1CCN(C2Cc3cc(F)ccc3Sc3ccc(Cl)cc32)CC1 (centres undefined) | 74.4 µM |
| NC1=NC[C@H](Cc2ccccc2)N1CCCCC1CCCCC1 | 36.1 µM |
| CN1CCN(C(c2ccc(Br)cc2)c2cc(Cl)c3cccnc3c2O)CC1 (centres undefined) | 33.6 µM |
| O=C(NC(=S)NNC(=O)c1ccccc1O)c1ccco1 | 23.8 µM |
| O=C(OCC(=O)N1CCOCC1)c1ccc[nH]c1=O | 10.6 µM |
| O=c1cc(-c2ccccc2)cc(-c2ccccc2)n1O | 51.7 µM |
| O=C(CCN1CCN(C(=O)c2ccccc2)CC1)c1ccc(Br)cc1 | 144 µM |
| Cc1ccc2oc(=O)c(/C=C(\O)c3ccccc3)nc2c1 | 46.7 µM |
| Cc1ccc2nc(/C(C#N)=C\c3ccc([N+](=O)[O-])o3)[nH]c2c1 | 23.3 µM |
| Nc1nonc1-n1nnc(C(=O)N/N=C/c2cc(Br)ccc2O)c1CSC1=NCCS1 | 26 µM |
| C#CCOCCOCCOCCNc1nc(N2CCN(C(=O)[C@H](Cc3ccc(O)cc3)n3cc([C@@H](N)CC(C)C)nn3)CC2)nc(N2CCN(C(=O)[C@H](Cc3ccc(O)cc3)n3cc([C@@H](N)CC(C)C)nn3)CC2)n1 | 112 µM |
| COc1c(N2CCN[C@H](C)C2)c(F)cc2c(=O)c(C(=O)O)cn(C3CC3)c12 | < 0.23 µM |
| O=[N+]([O-])c1cc(Cl)c2cccnc2c1O | 1.46 µM |
| CCN1CCCC1CNC(=O)C1CCN(Cc2nc(-c3cccc(Br)c3)oc2C)CC1 (centres undefined) | 143 µM |
| Cc1ccc(C[n+]2c(-c3ccc(C)cc3)cc(-c3ccc(C)cc3)cc2-c2ccc(C)cc2)cc1 | 15.6 µM |
| O=C(N/N=C/c1ccc([N+](=O)[O-])o1)C1CCCC1 | 37.7 µM |
